# Experimental data as given in patent US20250073355A1, “CD44-BINDING PEPTIDE REAGENTS AND METHODS” (THE REGENTS OF THE UNIVERSITY OF MICHIGAN, priority 2021, published 2025).
# What was measured:
# [1] = system: orthotopic SK-Hep1 xenograft tumors; experiment: Whole body fluorescence imaging of orthotopic human HCC xenograft tumors; details: peak uptake ([…]), intravenous, n=5 mice
# Description: (§1) Human HCC xenograft tumors were implanted orthotopically in female nude athymic mice. First, ˜5×10^6 SK-Hep1 tumor cells were injected subcutaneously into the hind limb flank. Tumors were then monitored twice a week and allowed to grow to 1-2 cm in diameter for 10-30 days. A small horizontal incision was made below the sternum to expose the liver. The liver was incised with a sharp scalpel horizontally in parallel with the surface of the exposed liver. A piece of the subcutaneous tumor with dimensions of ˜1×1×1 mm^3 was implanted into the incision, and then the site was sealed with absorbable hemostatic material (surgical, Johnson & Johnson). The liver was returned to its original position after confirming hemostasis.
# [2] = system: orthotopic human HCC xenograft tumors (SK-Hep1); experiment: Photoacoustic imaging of orthotopic human HCC xenograft tumors
# Description: as §1
# IRDye800-labeled target and control peptides (300 μM in 200 μL PBS) were intravenously injected in mice bearing orthotopical SK-Hep1 tumors. An unlabeled peptide (1.5 mM, 100 μL) was injected 30 min prior to the labeled peptide to compete for binding. ICG (2.46 mg/kg) was injected intravenously as a control. Three-dimensional (3D) images were acquired from 0 to 48 h post injection and reconstructed using PAI tomography system (Nexus 128, Endra) using Iex=774 nm excitation. The photoacoustic signal intensity was measured from the two-dimensional (2D) maximum intensity projection (MIP) images, and the pre-injection images were used for background.
# The photoacoustic images were collected to evaluate the time course for peptide uptake, FIG. 14A. […] Indocyanine green (ICG) was also administered (2.46 mg/kg) for comparison.
# [3] = system: orthotopic human HCC xenograft tumors; experiment: Intraoperative laparoscopic imaging of orthotopic human HCC xenograft tumors; format: in vivo; details: […] post-injection, n=8 mice
# Description: A self-build imaging module was attached to standard surgical laparoscope (#49003 AA, HOPKINS II Straight Forward Telescope 0°, Karl Storz, El Segundo, CA, USA) to collect WL and NIR FL images. WL illumination (MCWHL5, Thorlabs, Newton, NJ, USA) and FL excitation source (λex=785 nm, #iBEAM-SMART-785-S, Toptica Photonics) were coupled into the laparoscope. WL and NIR FL images are collected, simultaneously, by a color CCD camera (#GX-FW-28S5C-C, Point Grey Research, Richmond, BC V6W 1 K7, Canada) and a NIR CCD camera (Orca R-2, Hamamatsu Photonics, Hamamatsu City, Shizuoka Pref., Japan) with a laser power of 1.2 mW, respectively.
# After completion of imaging, the mice were euthanized, and the livers were resected. A human specific anti-cytokeratin was stained on tumor sections by IHC to further confirm the implanted human derived HCC tumors, FIG. 16H. Overexpression of CD44 was confirmed by IHC and IF, FIG. 161,J. Representative histology (H&E) of the tumor is shown, FIG. 16K.
structure (smiles),measurement,setting,value
"CC1(C)C(/C=C/C=C/C=C/C=C2\N(CCCCS(=O)(=O)O)c3ccc4ccccc4c3C2(C)C)=[N+](CCCCS(=O)(=O)[O-])c2ccc3ccccc3c21 [ICG, Indocyanine green]","T/B ratio, whole body fluorescence imaging (mean±SD)",[1],0.46±0.03
same,"T/B ratio, photoacoustic imaging (mean±SD)","[2]; […] post-injection, intravenous, n=5 mice",1.39±0.13
same,"time of peak intensity (uptake) in tumor, photoacoustic","[2]; female, nude athymic, mouse, in vivo, iv",> 24 h
same,"T/B ratio, laparoscopic fluorescence imaging (mean±SD)",[3],0.87±0.2
